The results in this text go back to patent US20240262831A1, “COMPOUNDS AND USE THEREOF FOR TREATMENT OF NEURODEGENERATIVE, DEGENERATIVE AND METABOLIC DISORDERS” (VOVA IDA THERAPEUTICS, INC., priority 2020, published 2024).

Test system in one data set: not listed separately
The data set is described as follows: in vitro. As to conditions: mouse, tox (toxicity noted in TPrP EC50 column).
`CCOc1ccc(-c2cc(Cl)n3ncc(C(=O)NCCCn4ccnc4C)c3n2)cc1` [SR-32689]: the EC50 was > 900 nM.

Test system in the next data set: not listed separately
The data set is described as follows: Microsomal stability assay, human hepatic microsomes. It is filed as in vitro ADME. As to conditions: 1 mg/ml human hepatic microsomes, 37° C., half-life by LC-MS/MS. As for the experimental part:
The metabolic stability of some test compounds was determined in hepatic human and mouse microsomes. The compound was incubated with 1 mg/ml human or mouse hepatic microsomes at 37° C. with continuous shaking. Aliquots were removed at various time points between 5 minutes and 2 hours and acetonitrile was added to quench the reactions and precipitate the proteins. Samples were then centrifuged through 0.45 μm filter plates and half-lives were determined by LC-MS/MS.
Turning to `CCOc1ccc(-c2ccn3ccc(C(=O)NCCCn4ccnc4C)c3n2)cc1` [SR-35784], the “Stability in human microsomes ≥15 minutes” value is “Yes”.

Another data set relates to PK1 neuroblastoma cells exposed to TPrP. Nature of the data set: cells. As to conditions: Neuroblastoma cell, 96 h, read-out: TPrP EC50.
As for `Cc1cc(-c2ccc3c(c2)OCO3)nc2c(C(=O)NCCCn3ccnc3C)csc12` [SR-33781], the concentration for a half-maximal effect (EC50) was < 5 nM.
With `CCOc1ccc(-c2cc(=O)n3ncc(C(=O)NCCCn4ccnc4C)c3[nH]2)cc1` [SR-32684], the EC50 worked out at 900 nM.
In the case of `O=C(NCCCn1ccnc1)c1cnn2c(C(F)(F)F)cc(-c3ccccc3)nc12` [SR-229], the 50% effective concentration (EC50) was 2 nM.
Still for that read-out and setting: under `Cc1nccn1CCCNC(=O)c1cnn2c(=O)cc(-c3ccc4c(c3)OCO4)[nH]c12` [SR-31105] stands 800 nM; under `CCOc1ccc(-c2cc(N3CC[C@H](NC(C)=O)C3)n3ncc(C(=O)NCCCn4ccnc4C)c3n2)cc1` [SR-32688], < 5 nM.
Same read-out and setting: to `CCOc1ccc(-c2cc(=S)n3ncc(C(=O)NCCCn4ccnc4C)c3[nH]2)cc1` [SR-32685] belongs 40 nM; to `CCOc1ccc(-c2cc(=O)n3ncc(C(=O)NCCCn4ccnc4C)c3n2C)cc1` [SR-32686], > 2700 nM; to `CCOc1ccc(-c2cc(Cl)n3ncc(C(=O)NCCCn4ccnc4C)c3n2)cc1` [SR-32689], 20 nM.
The same measure, in the same setting: under `CCOc1ccc(-c2cc(=S)c3scc(C(=O)NCCCn4ccnc4C)c3[nH]2)cc1` [SR-34953] stands 6 nM; under `CCOc1ccc(-c2cc(=S)c3cccc(C(=O)NCCCn4ccnc4C)c3o2)cc1` [SR-35435], 54 nM; under `CCOc1ccc(-c2cc(=O)c3cccc(C(=O)NCCCn4ccnc4C)c3o2)cc1` [SR-35434], 18 nM.
As to `CCOc1ccc(-c2cc(N3CC[C@@H](NC(C)=O)C3)n3ncc(C(=O)NCCCn4ccnc4C)c3n2)cc1` [SR-32687], the EC50 was < 5 nM.
As for `CCSc1ccc(-c2cc(=S)n3ncc(C(=O)NCCCn4ccnc4C)c3[nH]2)cc1` [SR-34831], the EC50 stood at 20 nM.
